The record followed here is PubChem BioAssay (NCI).

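Briefly, cells in 96-well plates were exposed to five compound concentrations for 48 h, and endpoints were estimated by linear interpolation. TGI marks complete inhibition of growth.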 Where only a bound is given, the exact number is not on record here.

Among the test systems are A549 NSCLC; CAKI-1 renal; DMS 114 small cell lung; HL-60(TB) leukemia; HOP-18 NSCLC; HOP-62 NSCLC; HT29 colon; MALME-3M melanoma; SK-MEL-2 melanoma; SNB-78 CNS.
Test in all cases: growth of human tumour cells (NCI), 48 h

For `CS(=O)(=O)c1nc(Cl)c(Cl)c(C#N)c1Cl`, the TGI with A549 NSCLC is 40.4 µM; with CAKI-1 renal it was 1.69 µM; with DMS 114 small cell lung, 32.2 µM; in the test with HL-60(TB) leukemia it was above 100 µM; in the test on HOP-18 NSCLC, 11.5 µM; with HOP-62 NSCLC, 35.6 µM. In addition, the TGI with HT29 colon was 4.35 µM; with MALME-3M melanoma, 4.45 µM; in the test with SK-MEL-2 melanoma, 14.5 µM; in the test with SNB-78 CNS, above 36 µM.
As for `CC12C(=O)N(CCN)C(=O)C1C1c3ccccc3C2c2ccccc21` (configuration not stated), the TGI in the test on A549 NSCLC, with CAKI-1 renal, with DMS 114 small cell lung, in the test with HL-60(TB) leukemia, in the test on HOP-18 NSCLC and in the test with HOP-62 NSCLC was above 100 µM throughout. The TGI with HT29 colon, in the test with MALME-3M melanoma, in the test with SK-MEL-2 melanoma and with SNB-78 CNS was above 100 µM in each case.
With `N#CC12Cc3ccc4c(c3-c3cccc(c31)CCN2C(=O)c1ccccc1)OCO4` (configuration not stated), the TGI in the test with A549 NSCLC, in the test with DMS 114 small cell lung, in the test with HL-60(TB) leukemia, in the test with HOP-18 NSCLC, in the test with HOP-62 NSCLC and with HT29 colon was above 100 µM in each case. In addition, the TGI with MALME-3M melanoma and with SNB-78 CNS was above 100 µM throughout.
Consider `CCOc1ccc(NC(=O)CCC(=O)NN)cc1`, for which the TGI with A549 NSCLC, in the test with CAKI-1 renal, with DMS 114 small cell lung, with HL-60(TB) leukemia, in the test with HOP-18 NSCLC and in the test with HOP-62 NSCLC was above 100 µM throughout. Also, the TGI in the test on HT29 colon, with MALME-3M melanoma, with SK-MEL-2 melanoma and with SNB-78 CNS was above 100 µM in each case.
As to `CC12OC3CC(O1)C1(C=O)C4CCC5(C)C(c6ccc(=O)oc6)CCC5(O)C4CCC1(C3)O2` (configuration not stated), the TGI in the test with A549 NSCLC worked out at 0.194 µM; in the test with CAKI-1 renal it was 0.729 µM; in the test on DMS 114 small cell lung, 0.191 µM; with HL-60(TB) leukemia, 0.474 µM; in the test with HOP-18 NSCLC, 0.748 µM; in the test on HOP-62 NSCLC it was 0.348 µM. Further, the TGI in the test with HT29 colon was 1.3 µM; in the test on MALME-3M melanoma it was 0.51 µM; with SK-MEL-2 melanoma, 0.79 µM; in the test with SNB-78 CNS, 3.66 µM.
For the molecule `OC1C2C=CCC1CCC2` (configuration not stated), the TGI in the test on A549 NSCLC, in the test with CAKI-1 renal, in the test on DMS 114 small cell lung, in the test on HL-60(TB) leukemia, in the test on HOP-18 NSCLC and in the test on HOP-62 NSCLC was above 100 µM each time. For the same molecule, the TGI in the test with HT29 colon, in the test on MALME-3M melanoma, in the test with SK-MEL-2 melanoma and with SNB-78 CNS was above 100 µM in each case.
Consider `CC1=NN(c2ccccc2)C(=O)C1N=Nc1ccc(Br)c(C)c1` (configuration not stated), for which the TGI in the test on A549 NSCLC, with CAKI-1 renal, with DMS 114 small cell lung, with HL-60(TB) leukemia, with HOP-18 NSCLC and in the test with HOP-62 NSCLC was above 100 µM each time. In addition, the TGI in the test with HT29 colon, in the test on MALME-3M melanoma, with SK-MEL-2 melanoma and in the test with SNB-78 CNS was above 100 µM in each case.
Take `O=c1[nH]c2c(O)cccc2c2cc3c(c(O)c12)OCO3`: the TGI in the test with A549 NSCLC was above 100 µM; in the test on CAKI-1 renal, 40.8 µM; in the test on DMS 114 small cell lung it was 75.8 µM; in the test on HL-60(TB) leukemia, 31.1 µM; in the test on HOP-18 NSCLC, 0.877 µM; in the test on HOP-62 NSCLC, 61.8 µM. Besides, the TGI in the test on HT29 colon came out at 50.6 µM; with MALME-3M melanoma, 56.4 µM; in the test with SNB-78 CNS, 80.4 µM.
Take `O=[N+]([O-])c1cc(/C=N/NS(=O)(=O)c2ccc(F)cc2)c(O)c([N+](=O)[O-])c1`: the TGI with A549 NSCLC was above 100 µM; with CAKI-1 renal it was above 100 µM; in the test on DMS 114 small cell lung it was above 100 µM; in the test on HL-60(TB) leukemia it was 67.3 µM; in the test with HOP-18 NSCLC it was above 100 µM; in the test on HOP-62 NSCLC, above 100 µM. Further, the TGI was 64.6 µM in the test on HT29 colon, above 100 µM with MALME-3M melanoma, above 100 µM in the test with SK-MEL-2 melanoma and above 100 µM in the test with SNB-78 CNS.
On to `CC(C)NC(=O)O/N=C1\CCC2[C@@H]3CC=C4C[C@@H](OC(=O)NC(C)C)CC[C@]4(C)C3CC[C@]12C` (some centres not stated), for which the TGI in the test with A549 NSCLC was 5.11 µM; in the test with CAKI-1 renal, 4.29 µM; with DMS 114 small cell lung it was 1.98 µM; in the test on HL-60(TB) leukemia it was 5.37 µM; in the test with HOP-18 NSCLC, 4.67 µM; in the test with HOP-62 NSCLC, above 34 µM. The TGI in the test with HT29 colon came to 8.87 µM; in the test with MALME-3M melanoma it was 0.983 µM; in the test with SK-MEL-2 melanoma it was 2.9 µM; in the test on SNB-78 CNS, 6.77 µM.
Turning to `CCOC(=O)c1c(C(F)(F)F)oc2c1ccc1nc3nonc3nc12`, the TGI with A549 NSCLC was 35 µM; in the test with CAKI-1 renal it was 27.3 µM; in the test on DMS 114 small cell lung, 55.9 µM; with HL-60(TB) leukemia, 32.5 µM; in the test on HOP-18 NSCLC, 26 µM; with HOP-62 NSCLC it was 18.9 µM. Moreover, the TGI was determined as 28.9 µM with HT29 colon, 32 µM in the test with MALME-3M melanoma, 33.8 µM with SK-MEL-2 melanoma and 23.2 µM in the test with SNB-78 CNS.
Turning to `Cc1cc2c(cc1C)[n+]([O-])c(-c1c(Cl)cccc1Cl)c(N)[n+]2[O-]`, the TGI with A549 NSCLC is 98.9 µM; with CAKI-1 renal it was 95.1 µM; in the test with DMS 114 small cell lung, 98.7 µM; in the test on HL-60(TB) leukemia it was above 100 µM; in the test on HOP-18 NSCLC, 86.4 µM; in the test on HOP-62 NSCLC, 96.8 µM. Moreover, the TGI was above 100 µM with HT29 colon, 92.3 µM in the test with MALME-3M melanoma, above 100 µM in the test with SK-MEL-2 melanoma and above 100 µM with SNB-78 CNS.
As to `Nn1c(N=Nc2c(O)[nH]c3ccccc23)n[nH]c1=S`, the TGI in the test on A549 NSCLC, in the test with CAKI-1 renal, with DMS 114 small cell lung, in the test with HL-60(TB) leukemia, in the test on HOP-18 NSCLC and in the test with HOP-62 NSCLC was above 100 µM each time. The TGI with HT29 colon, in the test on MALME-3M melanoma, in the test on SK-MEL-2 melanoma and in the test with SNB-78 CNS was above 100 µM each time.
As to `O=C1c2ccccc2C(=O)c2sc(Nc3ccc(Cl)c(Cl)c3)nc21`, the TGI was found to be 54.5 µM in the test on A549 NSCLC; 8.83 µM in the test on CAKI-1 renal; 3.26 µM in the test with DMS 114 small cell lung; 1.18 µM in the test with HL-60(TB) leukemia; 14.3 µM with HOP-18 NSCLC; 21.3 µM with HOP-62 NSCLC. Also, the TGI in the test with HT29 colon was 42.5 µM; in the test with MALME-3M melanoma, 9.47 µM; in the test with SK-MEL-2 melanoma it was 33.2 µM; in the test with SNB-78 CNS, 6.68 µM.
Turning to `CP(C)C.[Ag][I]`, the TGI in the test on A549 NSCLC, in the test with CAKI-1 renal, with DMS 114 small cell lung, in the test on HL-60(TB) leukemia, in the test with HOP-18 NSCLC and in the test with HOP-62 NSCLC was above 100 µM in each case. In addition, the TGI with HT29 colon is above 100 µM; in the test with MALME-3M melanoma, above 100 µM; in the test on SK-MEL-2 melanoma, above 100 µM; in the test with SNB-78 CNS, 96.1 µM.
As for `C[N+]1=c2c3cccc4cccc(c(=O)n2CCC1)c43`, the TGI in the test on A549 NSCLC is 96.8 µM; with CAKI-1 renal, 84 µM; with DMS 114 small cell lung it was 38.7 µM; with HL-60(TB) leukemia, 25.3 µM; in the test with HOP-18 NSCLC it was above 100 µM; with HOP-62 NSCLC it was 86.2 µM. Moreover, the TGI in the test on HT29 colon is 52.5 µM; with MALME-3M melanoma, 32.9 µM; in the test with SK-MEL-2 melanoma, 35.3 µM; with SNB-78 CNS, 94.6 µM.
Consider `C=C1CC(C/C=C(\C)CC2CC(=C)C(=O)O2)OC1=O` (configuration not stated), for which the TGI with A549 NSCLC, in the test on CAKI-1 renal, in the test on DMS 114 small cell lung, in the test with HL-60(TB) leukemia, in the test with HOP-18 NSCLC and in the test on HOP-62 NSCLC was above 100 µM in each case. The TGI in the test with HT29 colon, in the test on MALME-3M melanoma, in the test on SK-MEL-2 melanoma and in the test with SNB-78 CNS was above 100 µM throughout.
